Measured values taken from PubChem BioAssay (NCI).
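All cell lines were grown in 96-well plates and treated with compound for 48 hours. TGI marks complete inhibition of growth.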

system: HOP-62 NSCLC; assay: NCI anticancer screen, dose series, 48 h

Row | SMILES | TGI [µM]
1 | Cc1cc(C)cc(C(=N)c2ccccc2Cc2cccc3ccccc23)c1 | 32.2
2 | COn1cc(C=O)c2ccccc21 | > 100
3 | COC(CN(C(=O)c1ccccc1)C1CCC2(SCCS2)c2[nH]c3ccccc3c21)OC (stereo unspecified) | > 100
4 | C#CCn1ncc2c(SCc3ccccc3)ncnc21 | > 100
5 | CCC1OC2C(CC=C(C)C)=C3OC(C)(O)C(C)(CC)C(OC(=O)c4ccccc4)C3=C3OC(=O)C=C1C32 (stereo unspecified) | > 100
6 | CC1=C(C(N)=O)C(c2ccncc2)C(C#N)=C2SCC(=O)N12 (stereo unspecified) | > 100
7 | CCN(CC)c1ccc2cc(-c3nnc(-c4ccccc4)o3)c(=O)oc2c1 | > 74.1
8 | CC1=CC(C2/C(=N/O)C=C(C)CC2(C)C)C(O)C(C)(C)C1 (stereo unspecified) | 29.5
9 | O=C(CC(c1ccccc1)N1CCCCC1)c1ccccc1 (stereo unspecified) | 33.9
10 | O=C1/C(=C\c2ccc([N+](=O)[O-])o2)SC2N=C(COc3ccc(Cl)cc3)NN12 (stereo unspecified) | 41.8
11 | Cc1cccc2c1[C@]13OC(C)[C@]4(C)CC5OC(=O)[C@@]1(C)[C@@H]5[C@]34C(=O)O2 (stereo partly specified) | > 100

system: PC-3 prostate; assay: NCI anticancer screen, dose series, 48 h

Row | SMILES | TGI [µM]
12 | Cc1cc(C)cc(C(=N)c2ccccc2Cc2cccc3ccccc23)c1 | > 100
13 | COn1cc(C=O)c2ccccc21 | > 100
14 | COC(CN(C(=O)c1ccccc1)C1CCC2(SCCS2)c2[nH]c3ccccc3c21)OC (stereo unspecified) | 77.1
15 | C#CCn1ncc2c(SCc3ccccc3)ncnc21 | > 100
16 | CCC1OC2C(CC=C(C)C)=C3OC(C)(O)C(C)(CC)C(OC(=O)c4ccccc4)C3=C3OC(=O)C=C1C32 (stereo unspecified) | > 100
17 | CC1=C(C(N)=O)C(c2ccncc2)C(C#N)=C2SCC(=O)N12 (stereo unspecified) | > 100
18 | CCN(CC)c1ccc2cc(-c3nnc(-c4ccccc4)o3)c(=O)oc2c1 | > 100
19 | CC1=CC(C2/C(=N/O)C=C(C)CC2(C)C)C(O)C(C)(C)C1 (stereo unspecified) | 29.8
20 | O=C(CC(c1ccccc1)N1CCCCC1)c1ccccc1 (stereo unspecified) | 29.4
21 | O=C1/C(=C\c2ccc([N+](=O)[O-])o2)SC2N=C(COc3ccc(Cl)cc3)NN12 (stereo unspecified) | 24.4
22 | Cc1cccc2c1[C@]13OC(C)[C@]4(C)CC5OC(=O)[C@@]1(C)[C@@H]5[C@]34C(=O)O2 (stereo partly specified) | > 100

system: SK-MEL-28 melanoma; assay: NCI anticancer screen, dose series, 48 h

Row | SMILES | TGI [µM]
23 | Cc1cc(C)cc(C(=N)c2ccccc2Cc2cccc3ccccc23)c1 | 34.7
24 | COn1cc(C=O)c2ccccc21 | > 100
25 | COC(CN(C(=O)c1ccccc1)C1CCC2(SCCS2)c2[nH]c3ccccc3c21)OC (stereo unspecified) | > 100
26 | C#CCn1ncc2c(SCc3ccccc3)ncnc21 | > 100
27 | CCC1OC2C(CC=C(C)C)=C3OC(C)(O)C(C)(CC)C(OC(=O)c4ccccc4)C3=C3OC(=O)C=C1C32 (stereo unspecified) | > 100
28 | CC1=C(C(N)=O)C(c2ccncc2)C(C#N)=C2SCC(=O)N12 (stereo unspecified) | > 100
29 | CCN(CC)c1ccc2cc(-c3nnc(-c4ccccc4)o3)c(=O)oc2c1 | > 100
30 | CC1=CC(C2/C(=N/O)C=C(C)CC2(C)C)C(O)C(C)(C)C1 (stereo unspecified) | 30.9
31 | O=C(CC(c1ccccc1)N1CCCCC1)c1ccccc1 (stereo unspecified) | 32.4
32 | O=C1/C(=C\c2ccc([N+](=O)[O-])o2)SC2N=C(COc3ccc(Cl)cc3)NN12 (stereo unspecified) | 17.9
33 | Cc1cccc2c1[C@]13OC(C)[C@]4(C)CC5OC(=O)[C@@]1(C)[C@@H]5[C@]34C(=O)O2 (stereo partly specified) | > 100

system: MCF7 breast; assay: NCI anticancer screen, dose series, 48 h

Row | SMILES | TGI [µM]
34 | Cc1cc(C)cc(C(=N)c2ccccc2Cc2cccc3ccccc23)c1 | 32.2
35 | COn1cc(C=O)c2ccccc21 | > 100
36 | COC(CN(C(=O)c1ccccc1)C1CCC2(SCCS2)c2[nH]c3ccccc3c21)OC (stereo unspecified) | > 100
37 | C#CCn1ncc2c(SCc3ccccc3)ncnc21 | > 100
38 | CCC1OC2C(CC=C(C)C)=C3OC(C)(O)C(C)(CC)C(OC(=O)c4ccccc4)C3=C3OC(=O)C=C1C32 (stereo unspecified) | > 100
39 | CC1=C(C(N)=O)C(c2ccncc2)C(C#N)=C2SCC(=O)N12 (stereo unspecified) | > 100
40 | CCN(CC)c1ccc2cc(-c3nnc(-c4ccccc4)o3)c(=O)oc2c1 | > 100
41 | CC1=CC(C2/C(=N/O)C=C(C)CC2(C)C)C(O)C(C)(C)C1 (stereo unspecified) | 30.4
42 | O=C(CC(c1ccccc1)N1CCCCC1)c1ccccc1 (stereo unspecified) | 15.4
43 | O=C1/C(=C\c2ccc([N+](=O)[O-])o2)SC2N=C(COc3ccc(Cl)cc3)NN12 (stereo unspecified) | 4.8
44 | Cc1cccc2c1[C@]13OC(C)[C@]4(C)CC5OC(=O)[C@@]1(C)[C@@H]5[C@]34C(=O)O2 (stereo partly specified) | > 100

system: CCRF-CEM leukemia; assay: NCI anticancer screen, dose series, 48 h

Row | SMILES | TGI [µM]
45 | Cc1cc(C)cc(C(=N)c2ccccc2Cc2cccc3ccccc23)c1 | 26.5
46 | COn1cc(C=O)c2ccccc21 | 1.34
47 | COC(CN(C(=O)c1ccccc1)C1CCC2(SCCS2)c2[nH]c3ccccc3c21)OC (stereo unspecified) | > 100
48 | C#CCn1ncc2c(SCc3ccccc3)ncnc21 | > 100
49 | CCC1OC2C(CC=C(C)C)=C3OC(C)(O)C(C)(CC)C(OC(=O)c4ccccc4)C3=C3OC(=O)C=C1C32 (stereo unspecified) | > 100
50 | CC1=C(C(N)=O)C(c2ccncc2)C(C#N)=C2SCC(=O)N12 (stereo unspecified) | > 100
51 | CCN(CC)c1ccc2cc(-c3nnc(-c4ccccc4)o3)c(=O)oc2c1 | > 100
52 | CC1=CC(C2/C(=N/O)C=C(C)CC2(C)C)C(O)C(C)(C)C1 (stereo unspecified) | 60.4
53 | O=C(CC(c1ccccc1)N1CCCCC1)c1ccccc1 (stereo unspecified) | 4.69
54 | O=C1/C(=C\c2ccc([N+](=O)[O-])o2)SC2N=C(COc3ccc(Cl)cc3)NN12 (stereo unspecified) | 5.97
55 | Cc1cccc2c1[C@]13OC(C)[C@]4(C)CC5OC(=O)[C@@]1(C)[C@@H]5[C@]34C(=O)O2 (stereo partly specified) | > 100

system: OVCAR-8 ovarian; assay: NCI anticancer screen, dose series, 48 h

Row | SMILES | TGI [µM]
56 | Cc1cc(C)cc(C(=N)c2ccccc2Cc2cccc3ccccc23)c1 | 34.1
57 | COn1cc(C=O)c2ccccc21 | > 100
58 | COC(CN(C(=O)c1ccccc1)C1CCC2(SCCS2)c2[nH]c3ccccc3c21)OC (stereo unspecified) | > 100
59 | C#CCn1ncc2c(SCc3ccccc3)ncnc21 | > 100
60 | CCC1OC2C(CC=C(C)C)=C3OC(C)(O)C(C)(CC)C(OC(=O)c4ccccc4)C3=C3OC(=O)C=C1C32 (stereo unspecified) | > 100
61 | CC1=C(C(N)=O)C(c2ccncc2)C(C#N)=C2SCC(=O)N12 (stereo unspecified) | > 100
62 | CCN(CC)c1ccc2cc(-c3nnc(-c4ccccc4)o3)c(=O)oc2c1 | 98.4
63 | CC1=CC(C2/C(=N/O)C=C(C)CC2(C)C)C(O)C(C)(C)C1 (stereo unspecified) | 33.8
64 | O=C(CC(c1ccccc1)N1CCCCC1)c1ccccc1 (stereo unspecified) | 33.4
65 | O=C1/C(=C\c2ccc([N+](=O)[O-])o2)SC2N=C(COc3ccc(Cl)cc3)NN12 (stereo unspecified) | 10.2
66 | Cc1cccc2c1[C@]13OC(C)[C@]4(C)CC5OC(=O)[C@@]1(C)[C@@H]5[C@]34C(=O)O2 (stereo partly specified) | > 100
